Results reported in patent publication US20240315993A1, “ANTIPARASITIC COMPOUNDS” (Intervet Inc., priority 2021, published 2024).

What was measured:
[1] = system: juvenile soft ticks (Ornithodoros moubata); assay: Guinea pig - efficacy against argaside tick; type: in vivo; settings: for effective to control ticks: 5 mg/kg
Procedure: (§1) Guinea pigs were locally co-infested (using an infestation device on a shaved skin area) with juvenile soft ticks (Ornithodoros moubata) and bed bugs (Cimex lectularius) before the treatment day (Day 0) to provide a baseline-negative control value. Guinea pigs were treated orally (by gavage) or subcutaneously at a dose of 5 mg/kg bodyweight of a test compound in a formulation of 10% DMF/Emulsifier+90% Aqua ad injectabilia.
(§2) Repeated local infestations with both parasites were performed at different time points after treatment. Within approximately 45 min after each infestation ten engorged ticks and ten engorged bed bugs were • collected and the percentage of dead and damaged parasites per species were • assessed approximately 24 hours following collection. The efficacy was • calculated as % of inhibition ‘killed+damaged’ parasites in a treated group in comparison to the baseline-negative control (using a modified Schneider Orelli's formula).
(§3) Results: Activity of the test compounds at different evaluation time-points (≥80% inhibition were found active): […]

[2] = system: bed bugs (Cimex lectularius); assay: Guinea pig - efficacy against bed bug; type: in vivo; settings: for effective to control bed bugs: 5 mg/kg
Procedure: as §1, §2, §3

[3] = system: Cabbage Looper (Trichoplusia ni); settings: Cabbage Looper second instar larvae, 128-well diet tray, 50 μg/cm^2, five to seven days, average of eight wells; cited from earlier work
[4] = system: Yellow Fever Mosquito (Aedes aegypti); settings: Aedes aegypti larvae about 1 day old, 96-well plate, scored after 3 days; cited from earlier work
[5] = 5 mg/kg subcutaneous, after 7 days
[6] = 5 mg/kg subcutaneous, after 10 days
[7] = 5 mg/kg subcutaneous, after 14 days
[8] = 5 mg/kg subcutaneous, after 17 days
[9] = at least until Day 10, both administration routes (oral, subcutaneous)
[10] = 5 mg/kg subcutaneous, after 21 days
[11] = 5 mg/kg subcutaneous, after 24 days
[12] = 5 mg/kg subcutaneous, after 28 days
[13] = 5 mg/kg subcutaneous, after 31 days
[14] = for at least one week, both administration routes
[15] = 5 mg/kg subcutaneous, after 35 days

O=C(Nc1ncc(F)cc1F)c1cc(NC(=O)C2C(c3cc(Cl)c(F)c(Cl)c3)C2(Cl)Cl)ccc1Cl (stereo not shown) [Compound 469]
100%: effective to control ticks [1, 9] | effective to control bed bugs [2, 9]
immediate activity: activity against tick nymphs (≥80% inhibition, killed+damaged) ([1]; 5 mg/kg oral, Day 0) | activity against tick nymphs (≥80% inhibition, killed+damaged) ([1]; 5 mg/kg subcutaneous, Day 0) | activity against bed bugs (≥80% inhibition, killed+damaged) ([2]; 5 mg/kg oral, Day 0) | activity against bed bugs (≥80% inhibition, killed+damaged) ([2]; 5 mg/kg subcutaneous, Day 0)
activity: activity against tick nymphs (≥80% inhibition, killed+damaged) ([1]; 5 mg/kg oral, after 7 days) | activity against tick nymphs (≥80% inhibition, killed+damaged) ([1]; 5 mg/kg oral, after 10 days) | activity against tick nymphs (≥80% inhibition, killed+damaged) [1, 5] | activity against tick nymphs (≥80% inhibition, killed+damaged) [1, 6] | activity against tick nymphs (≥80% inhibition, killed+damaged) [1, 7] | activity against tick nymphs (≥80% inhibition, killed+damaged) [1, 8] | activity against bed bugs (≥80% inhibition, killed+damaged) ([2]; 5 mg/kg oral, after 7 days) | activity against bed bugs (≥80% inhibition, killed+damaged) ([2]; 5 mg/kg oral, after 10 days) | activity against bed bugs (≥80% inhibition, killed+damaged) [2, 5] | activity against bed bugs (≥80% inhibition, killed+damaged) [2, 6] | activity against bed bugs (≥80% inhibition, killed+damaged) [2, 7] | activity against bed bugs (≥80% inhibition, killed+damaged) [2, 8] | activity against bed bugs (≥80% inhibition, killed+damaged) [2, 10]

O=C(Nc1ncc(F)cc1F)c1cc(NC(=O)C2C(c3cc(Cl)c(Cl)c(Cl)c3)C2(Cl)Cl)ccc1Cl (stereo not shown) [Compound 470]
100%: effective to control ticks [1, 14] | effective to control bed bugs [2, 14]
immediate activity: activity against tick nymphs (≥80% inhibition, killed+damaged) ([1]; 5 mg/kg oral, Day 0) | activity against tick nymphs (≥80% inhibition, killed+damaged) ([1]; 5 mg/kg subcutaneous, Day 0) | activity against bed bugs (≥80% inhibition, killed+damaged) ([2]; 5 mg/kg oral, Day 0) | activity against bed bugs (≥80% inhibition, killed+damaged) ([2]; 5 mg/kg subcutaneous, Day 0)
activity: activity against tick nymphs (≥80% inhibition, killed+damaged) ([1]; 5 mg/kg oral, after 7 days) | activity against tick nymphs (≥80% inhibition, killed+damaged) ([1]; 5 mg/kg oral, after 10 days) | activity against tick nymphs (≥80% inhibition, killed+damaged) ([1]; 5 mg/kg oral, after 14 days) | activity against tick nymphs (≥80% inhibition, killed+damaged) ([1]; 5 mg/kg oral, after 17 days) | activity against tick nymphs (≥80% inhibition, killed+damaged) [1, 5] | activity against tick nymphs (≥80% inhibition, killed+damaged) [1, 6] | activity against tick nymphs (≥80% inhibition, killed+damaged) [1, 7] | activity against tick nymphs (≥80% inhibition, killed+damaged) [1, 8] | activity against tick nymphs (≥80% inhibition, killed+damaged) [1, 10] | activity against tick nymphs (≥80% inhibition, killed+damaged) [1, 11] | activity against tick nymphs (≥80% inhibition, killed+damaged) [1, 12] | activity against tick nymphs (≥80% inhibition, killed+damaged) [1, 13] | activity against bed bugs (≥80% inhibition, killed+damaged) ([2]; 5 mg/kg oral, after 7 days) | activity against bed bugs (≥80% inhibition, killed+damaged) ([2]; 5 mg/kg oral, after 10 days) | activity against bed bugs (≥80% inhibition, killed+damaged) ([2]; 5 mg/kg oral, after 14 days) | activity against bed bugs (≥80% inhibition, killed+damaged) ([2]; 5 mg/kg oral, after 17 days) | activity against bed bugs (≥80% inhibition, killed+damaged) ([2]; 5 mg/kg oral, after 21 days) | activity against bed bugs (≥80% inhibition, killed+damaged) ([2]; 5 mg/kg oral, after 24 days) | activity against bed bugs (≥80% inhibition, killed+damaged) ([2]; 5 mg/kg oral, after 28 days) | activity against bed bugs (≥80% inhibition, killed+damaged) [2, 5] | activity against bed bugs (≥80% inhibition, killed+damaged) [2, 6] | activity against bed bugs (≥80% inhibition, killed+damaged) [2, 7] | activity against bed bugs (≥80% inhibition, killed+damaged) [2, 8] | activity against bed bugs (≥80% inhibition, killed+damaged) [2, 10] | activity against bed bugs (≥80% inhibition, killed+damaged) [2, 11] | activity against bed bugs (≥80% inhibition, killed+damaged) [2, 12] | activity against bed bugs (≥80% inhibition, killed+damaged) [2, 13] | activity against bed bugs (≥80% inhibition, killed+damaged) [2, 15]

O=C(Nc1ncc(F)cc1F)c1cc(NC(=O)C2C(c3cc(C(F)(F)F)cc(C(F)(F)F)c3)C2(Cl)Cl)ccc1Cl (stereo not shown) [Compound 471]
immediate activity: activity against tick nymphs (≥80% inhibition, killed+damaged) ([1]; 5 mg/kg oral, Day 0) | activity against tick nymphs (≥80% inhibition, killed+damaged) ([1]; 5 mg/kg subcutaneous, Day 0) | activity against bed bugs (≥80% inhibition, killed+damaged) ([2]; 5 mg/kg oral, Day 0) | activity against bed bugs (≥80% inhibition, killed+damaged) ([2]; 5 mg/kg subcutaneous, Day 0)
100%: effective to control ticks [1, 14] | effective to control bed bugs [2, 14]
activity: activity against tick nymphs (≥80% inhibition, killed+damaged) ([1]; 5 mg/kg oral, after 7 days) | activity against tick nymphs (≥80% inhibition, killed+damaged) ([1]; 5 mg/kg oral, after 10 days) | activity against tick nymphs (≥80% inhibition, killed+damaged) ([1]; 5 mg/kg oral, after 14 days) | activity against tick nymphs (≥80% inhibition, killed+damaged) ([1]; 5 mg/kg oral, after 17 days) | activity against tick nymphs (≥80% inhibition, killed+damaged) ([1]; 5 mg/kg oral, after 21 days) | activity against tick nymphs (≥80% inhibition, killed+damaged) ([1]; 5 mg/kg oral, after 24 days) | activity against tick nymphs (≥80% inhibition, killed+damaged) ([1]; 5 mg/kg oral, after 28 days) | activity against tick nymphs (≥80% inhibition, killed+damaged) ([1]; 5 mg/kg oral, after 31 days) | activity against tick nymphs (≥80% inhibition, killed+damaged) ([1]; 5 mg/kg oral, after 35 days) | activity against tick nymphs (≥80% inhibition, killed+damaged) [1, 5] | activity against tick nymphs (≥80% inhibition, killed+damaged) [1, 6] | activity against tick nymphs (≥80% inhibition, killed+damaged) [1, 7] | activity against tick nymphs (≥80% inhibition, killed+damaged) [1, 8] | activity against tick nymphs (≥80% inhibition, killed+damaged) [1, 10] | activity against tick nymphs (≥80% inhibition, killed+damaged) [1, 11] | activity against tick nymphs (≥80% inhibition, killed+damaged) [1, 12] | activity against tick nymphs (≥80% inhibition, killed+damaged) [1, 13] | activity against tick nymphs (≥80% inhibition, killed+damaged) [1, 15] | activity against bed bugs (≥80% inhibition, killed+damaged) ([2]; 5 mg/kg oral, after 7 days) | activity against bed bugs (≥80% inhibition, killed+damaged) ([2]; 5 mg/kg oral, after 10 days) | activity against bed bugs (≥80% inhibition, killed+damaged) ([2]; 5 mg/kg oral, after 14 days) | activity against bed bugs (≥80% inhibition, killed+damaged) ([2]; 5 mg/kg oral, after 17 days) | activity against bed bugs (≥80% inhibition, killed+damaged) ([2]; 5 mg/kg oral, after 21 days) | activity against bed bugs (≥80% inhibition, killed+damaged) ([2]; 5 mg/kg oral, after 24 days) | activity against bed bugs (≥80% inhibition, killed+damaged) ([2]; 5 mg/kg oral, after 28 days) | activity against bed bugs (≥80% inhibition, killed+damaged) ([2]; 5 mg/kg oral, after 31 days) | activity against bed bugs (≥80% inhibition, killed+damaged) ([2]; 5 mg/kg oral, after 35 days) | activity against bed bugs (≥80% inhibition, killed+damaged) [2, 5] | activity against bed bugs (≥80% inhibition, killed+damaged) [2, 6] | activity against bed bugs (≥80% inhibition, killed+damaged) [2, 7] | activity against bed bugs (≥80% inhibition, killed+damaged) [2, 8] | activity against bed bugs (≥80% inhibition, killed+damaged) [2, 10] | activity against bed bugs (≥80% inhibition, killed+damaged) [2, 11] | activity against bed bugs (≥80% inhibition, killed+damaged) [2, 12] | activity against bed bugs (≥80% inhibition, killed+damaged) [2, 13] | activity against bed bugs (≥80% inhibition, killed+damaged) [2, 15]

O=C(Nc1ccc(F)cc1F)c1cc(NC(=O)C2C(c3cc(C(F)(F)F)cc(C(F)(F)F)c3)C2(Cl)Cl)ccc1Cl (stereo not shown) [Compound 472]
immediate activity: activity against tick nymphs (≥80% inhibition, killed+damaged) ([1]; 5 mg/kg oral, Day 0) | activity against tick nymphs (≥80% inhibition, killed+damaged) ([1]; 5 mg/kg subcutaneous, Day 0) | activity against bed bugs (≥80% inhibition, killed+damaged) ([2]; 5 mg/kg oral, Day 0) | activity against bed bugs (≥80% inhibition, killed+damaged) ([2]; 5 mg/kg subcutaneous, Day 0)

O=C(Nc1ncc(F)cc1F)c1cc(NC(=O)C2C(c3cc(Cl)cc(C(F)(F)F)c3)C2(Cl)Cl)ccc1Cl (stereo not shown) [Compound 475]
activity: activity against tick nymphs (≥80% inhibition, killed+damaged) ([1]; 5 mg/kg oral, after 7 days) | activity against tick nymphs (≥80% inhibition, killed+damaged) ([1]; 5 mg/kg oral, after 10 days) | activity against tick nymphs (≥80% inhibition, killed+damaged) ([1]; 5 mg/kg oral, after 14 days) | activity against tick nymphs (≥80% inhibition, killed+damaged) ([1]; 5 mg/kg oral, after 17 days) | activity against tick nymphs (≥80% inhibition, killed+damaged) [1, 5] | activity against tick nymphs (≥80% inhibition, killed+damaged) [1, 6] | activity against tick nymphs (≥80% inhibition, killed+damaged) [1, 7] | activity against tick nymphs (≥80% inhibition, killed+damaged) [1, 8] | activity against tick nymphs (≥80% inhibition, killed+damaged) [1, 10] | activity against tick nymphs (≥80% inhibition, killed+damaged) [1, 11] | activity against tick nymphs (≥80% inhibition, killed+damaged) [1, 12] | activity against tick nymphs (≥80% inhibition, killed+damaged) [1, 13] | activity against tick nymphs (≥80% inhibition, killed+damaged) [1, 15] | activity against bed bugs (≥80% inhibition, killed+damaged) ([2]; 5 mg/kg oral, after 7 days) | activity against bed bugs (≥80% inhibition, killed+damaged) ([2]; 5 mg/kg oral, after 10 days) | activity against bed bugs (≥80% inhibition, killed+damaged) ([2]; 5 mg/kg oral, after 14 days) | activity against bed bugs (≥80% inhibition, killed+damaged) ([2]; 5 mg/kg oral, after 17 days) | activity against bed bugs (≥80% inhibition, killed+damaged) ([2]; 5 mg/kg oral, after 21 days) | activity against bed bugs (≥80% inhibition, killed+damaged) ([2]; 5 mg/kg oral, after 24 days) | activity against bed bugs (≥80% inhibition, killed+damaged) ([2]; 5 mg/kg oral, after 28 days) | activity against bed bugs (≥80% inhibition, killed+damaged) [2, 5] | activity against bed bugs (≥80% inhibition, killed+damaged) [2, 6] | activity against bed bugs (≥80% inhibition, killed+damaged) [2, 7] | activity against bed bugs (≥80% inhibition, killed+damaged) [2, 8] | activity against bed bugs (≥80% inhibition, killed+damaged) [2, 10] | activity against bed bugs (≥80% inhibition, killed+damaged) [2, 11] | activity against bed bugs (≥80% inhibition, killed+damaged) [2, 12] | activity against bed bugs (≥80% inhibition, killed+damaged) [2, 13]
100%: effective to control ticks [1, 14] | effective to control bed bugs [2, 14]
immediate activity: activity against tick nymphs (≥80% inhibition, killed+damaged) ([1]; 5 mg/kg oral, Day 0) | activity against tick nymphs (≥80% inhibition, killed+damaged) ([1]; 5 mg/kg subcutaneous, Day 0) | activity against bed bugs (≥80% inhibition, killed+damaged) ([2]; 5 mg/kg oral, Day 0) | activity against bed bugs (≥80% inhibition, killed+damaged) ([2]; 5 mg/kg subcutaneous, Day 0)

Cc1cc(N)ccc1NC(=O)c1cc(NC(=O)C2C(c3ccc(F)c(Cl)c3)C2(Cl)Cl)ccc1Cl (stereo not shown) [c50]
A (80-100): Test C: Bioassay on Yellow Fever Mosquito, mortality rating [4]
A (50-100): Test B: Bioassay on CL, percent mortality rating [3]

Cc1cc(N)ccc1NC(=O)c1cc(NC(=O)C2C(c3cc(Cl)cc(Cl)c3)C2(Cl)Cl)ccc1Cl (stereo not shown) [c82]
A (80-100): Test C: Bioassay on Yellow Fever Mosquito, mortality rating [4]
A (50-100): Test B: Bioassay on CL, percent mortality rating [3]

Cc1cc(N)ccc1NC(=O)c1cc(NC(=O)C2C(c3cc(Cl)cc(Cl)c3)C2(Cl)Cl)ccc1Cl (stereo not shown) [c83]
A (50-100): Test B: Bioassay on CL, percent mortality rating [3]
A (80-100): Test C: Bioassay on Yellow Fever Mosquito, mortality rating [4]
